Laboratory results as given in US12281080B2, “Quinoline-based compounds and methods of inhibiting CDK8/19” (University of South Carolina, priority 2018, dated 2025).

Assays:
[1] = molecular target: ABL1(F317L)-nonphosphorylated (Homo sapiens (Human), UniProt P00519, F317L); test: KINOMEscan scanMAX; format: binding; details: 2000 nM; read-out: Percent Control
ALK(C1156Y) = ALK(C1156Y) (Homo sapiens (Human), UniProt Q9UM73, C1156Y); test: KINOMEscan scanMAX; format: binding; details: 2000 nM; read-out: Percent Control
BMPR1B = BMPR1B (Homo sapiens (Human), UniProt O00238); test: KINOMEscan scanMAX; format: binding; details: 2000 nM; read-out: Percent Control
BRAF = BRAF (Homo sapiens (Human), UniProt P15056); test: KINOMEscan scanMAX; format: binding; details: 2000 nM; read-out: Percent Control
CDK7 = CDK7 (Homo sapiens (Human), UniProt P50613); test: KINOMEscan scanMAX; format: binding; details: 2000 nM; read-out: Percent Control
CDK7, sequence (P50613 whole entry): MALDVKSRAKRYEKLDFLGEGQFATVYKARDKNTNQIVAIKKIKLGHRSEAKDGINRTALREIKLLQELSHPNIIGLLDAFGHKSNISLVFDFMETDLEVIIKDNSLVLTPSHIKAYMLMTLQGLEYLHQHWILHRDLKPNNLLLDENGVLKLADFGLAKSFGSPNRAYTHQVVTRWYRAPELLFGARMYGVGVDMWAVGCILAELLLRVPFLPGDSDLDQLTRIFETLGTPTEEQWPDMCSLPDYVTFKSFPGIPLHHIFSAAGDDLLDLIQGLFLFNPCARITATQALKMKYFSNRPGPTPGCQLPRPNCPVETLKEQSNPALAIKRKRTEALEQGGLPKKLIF

CDKL3 = CDKL3 (Homo sapiens (Human), UniProt Q8IVW4); test: KINOMEscan scanMAX; format: binding; details: 2000 nM; read-out: Percent Control
CHEK2 = CHEK2 (Homo sapiens (Human), UniProt O96017); test: KINOMEscan scanMAX; format: binding; details: 2000 nM; read-out: Percent Control
CHEK2, sequence (O96017 whole entry): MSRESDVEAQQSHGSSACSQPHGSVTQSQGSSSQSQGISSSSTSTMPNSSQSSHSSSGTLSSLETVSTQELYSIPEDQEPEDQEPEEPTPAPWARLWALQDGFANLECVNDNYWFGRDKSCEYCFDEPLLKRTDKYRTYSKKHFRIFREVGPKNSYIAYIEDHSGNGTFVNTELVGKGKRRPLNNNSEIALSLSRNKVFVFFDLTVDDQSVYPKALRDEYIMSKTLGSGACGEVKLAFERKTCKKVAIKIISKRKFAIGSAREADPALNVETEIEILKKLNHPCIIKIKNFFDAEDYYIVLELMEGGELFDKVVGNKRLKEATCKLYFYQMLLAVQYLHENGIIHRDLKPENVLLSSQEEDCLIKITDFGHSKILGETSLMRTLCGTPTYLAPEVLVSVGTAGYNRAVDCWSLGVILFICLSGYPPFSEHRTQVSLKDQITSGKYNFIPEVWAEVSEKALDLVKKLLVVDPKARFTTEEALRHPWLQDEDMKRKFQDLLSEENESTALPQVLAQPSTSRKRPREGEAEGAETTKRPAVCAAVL

EGFR(E746-A750del) = EGFR(E746-A750del) (Homo sapiens (Human), UniProt P00533, DEL746-750); test: KINOMEscan scanMAX; format: binding; details: 2000 nM; read-out: Percent Control
EPHB1 = EPHB1 (Homo sapiens (Human), UniProt P54762); test: KINOMEscan scanMAX; format: binding; details: 2000 nM; read-out: Percent Control
ERN1 = ERN1 (Homo sapiens (Human), UniProt O75460); test: KINOMEscan scanMAX; format: binding; details: 2000 nM; read-out: Percent Control
FGFR3(G697C) = FGFR3(G697C) (Homo sapiens (Human), UniProt P22607, G697C); test: KINOMEscan scanMAX; format: binding; details: 2000 nM; read-out: Percent Control
FLT1 = FLT1 (Homo sapiens (Human), UniProt P17948); test: KINOMEscan scanMAX; format: binding; details: 2000 nM; read-out: Percent Control
FLT3(ITD, D835V) = test: KINOMEscan scanMAX; format: binding, human; details: 2000 nM
HASPIN (GSG2) = HASPIN (GSG2) (Homo sapiens (Human), UniProt Q8TF76); test: KINOMEscan scanMAX; format: binding; details: 2000 nM; read-out: Percent Control
HIPK3 = HIPK3 (Homo sapiens (Human), UniProt Q9H422); test: KINOMEscan scanMAX; format: binding; details: 2000 nM; read-out: Percent Control
HIPK3, sequence (Q9H422 whole entry): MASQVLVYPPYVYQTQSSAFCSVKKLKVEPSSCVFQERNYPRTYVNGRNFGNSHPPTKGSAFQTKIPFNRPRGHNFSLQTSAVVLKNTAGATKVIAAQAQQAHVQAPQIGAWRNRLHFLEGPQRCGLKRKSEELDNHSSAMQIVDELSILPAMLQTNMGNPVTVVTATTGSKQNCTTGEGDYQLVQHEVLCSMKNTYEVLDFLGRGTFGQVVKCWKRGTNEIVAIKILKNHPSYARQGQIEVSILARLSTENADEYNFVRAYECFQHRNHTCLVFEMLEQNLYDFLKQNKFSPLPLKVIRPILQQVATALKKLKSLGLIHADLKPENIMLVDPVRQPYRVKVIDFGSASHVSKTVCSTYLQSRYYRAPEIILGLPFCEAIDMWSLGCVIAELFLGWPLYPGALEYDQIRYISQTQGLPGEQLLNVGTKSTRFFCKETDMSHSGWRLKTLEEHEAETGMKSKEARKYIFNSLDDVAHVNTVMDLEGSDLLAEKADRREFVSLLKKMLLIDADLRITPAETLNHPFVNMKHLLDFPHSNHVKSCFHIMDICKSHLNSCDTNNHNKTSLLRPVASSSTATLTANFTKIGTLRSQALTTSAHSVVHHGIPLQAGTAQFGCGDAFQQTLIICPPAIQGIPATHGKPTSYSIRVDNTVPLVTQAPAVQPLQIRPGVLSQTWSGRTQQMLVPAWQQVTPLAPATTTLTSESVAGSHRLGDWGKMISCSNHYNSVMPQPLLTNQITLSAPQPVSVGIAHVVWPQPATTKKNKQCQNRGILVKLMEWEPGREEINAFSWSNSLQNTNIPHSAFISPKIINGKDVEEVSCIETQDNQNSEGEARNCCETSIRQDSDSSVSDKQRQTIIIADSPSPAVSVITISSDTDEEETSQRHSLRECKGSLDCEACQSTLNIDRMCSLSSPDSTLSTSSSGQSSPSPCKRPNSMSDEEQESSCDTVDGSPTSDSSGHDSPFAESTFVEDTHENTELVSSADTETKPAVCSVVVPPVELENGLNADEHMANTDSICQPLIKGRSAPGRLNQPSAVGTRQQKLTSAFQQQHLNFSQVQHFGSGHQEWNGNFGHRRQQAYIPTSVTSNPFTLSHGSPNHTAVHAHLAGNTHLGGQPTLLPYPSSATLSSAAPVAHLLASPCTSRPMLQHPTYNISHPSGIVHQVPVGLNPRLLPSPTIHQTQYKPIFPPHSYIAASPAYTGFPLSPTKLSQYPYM

HPK1 (MAP4K1) = HPK1 (MAP4K1) (Homo sapiens (Human), UniProt Q92918); test: KINOMEscan scanMAX; format: binding; details: 2000 nM; read-out: Percent Control
ITK = ITK (Homo sapiens (Human), UniProt Q08881); test: KINOMEscan scanMAX; format: binding; details: 2000 nM; read-out: Percent Control
JNK1 (MAPK8) = JNK1 (MAPK8) (Homo sapiens (Human), UniProt P45983); test: KINOMEscan scanMAX; format: binding; details: 2000 nM; read-out: Percent Control
MAP3K1 = MAP3K1 (Homo sapiens (Human), UniProt Q13233); test: KINOMEscan scanMAX; format: binding; details: 2000 nM; read-out: Percent Control
MAP3K2 = MAP3K2 (Homo sapiens (Human), UniProt Q9Y2U5); test: KINOMEscan scanMAX; format: binding; details: 2000 nM; read-out: Percent Control
MEK1 (MAP2K1) = MEK1 (MAP2K1) (Homo sapiens (Human), UniProt Q02750); test: KINOMEscan scanMAX; format: binding; details: 2000 nM; read-out: Percent Control
MEK1 (MAP2K1), sequence (Q02750 whole entry): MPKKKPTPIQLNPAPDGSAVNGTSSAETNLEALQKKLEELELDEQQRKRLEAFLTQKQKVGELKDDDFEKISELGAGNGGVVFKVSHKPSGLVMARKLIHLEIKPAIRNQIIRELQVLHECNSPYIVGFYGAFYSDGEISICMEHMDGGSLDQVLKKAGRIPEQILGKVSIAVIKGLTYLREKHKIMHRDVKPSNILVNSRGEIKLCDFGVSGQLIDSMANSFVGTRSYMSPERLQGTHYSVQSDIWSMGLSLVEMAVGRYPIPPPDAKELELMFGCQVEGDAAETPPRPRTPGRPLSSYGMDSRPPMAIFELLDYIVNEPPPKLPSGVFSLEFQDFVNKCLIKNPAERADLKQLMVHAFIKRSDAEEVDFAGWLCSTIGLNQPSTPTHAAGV

MET = MET (Homo sapiens (Human), UniProt P08581); test: KINOMEscan scanMAX; format: binding; details: 2000 nM; read-out: Percent Control
MET, sequence (P08581 25-1390): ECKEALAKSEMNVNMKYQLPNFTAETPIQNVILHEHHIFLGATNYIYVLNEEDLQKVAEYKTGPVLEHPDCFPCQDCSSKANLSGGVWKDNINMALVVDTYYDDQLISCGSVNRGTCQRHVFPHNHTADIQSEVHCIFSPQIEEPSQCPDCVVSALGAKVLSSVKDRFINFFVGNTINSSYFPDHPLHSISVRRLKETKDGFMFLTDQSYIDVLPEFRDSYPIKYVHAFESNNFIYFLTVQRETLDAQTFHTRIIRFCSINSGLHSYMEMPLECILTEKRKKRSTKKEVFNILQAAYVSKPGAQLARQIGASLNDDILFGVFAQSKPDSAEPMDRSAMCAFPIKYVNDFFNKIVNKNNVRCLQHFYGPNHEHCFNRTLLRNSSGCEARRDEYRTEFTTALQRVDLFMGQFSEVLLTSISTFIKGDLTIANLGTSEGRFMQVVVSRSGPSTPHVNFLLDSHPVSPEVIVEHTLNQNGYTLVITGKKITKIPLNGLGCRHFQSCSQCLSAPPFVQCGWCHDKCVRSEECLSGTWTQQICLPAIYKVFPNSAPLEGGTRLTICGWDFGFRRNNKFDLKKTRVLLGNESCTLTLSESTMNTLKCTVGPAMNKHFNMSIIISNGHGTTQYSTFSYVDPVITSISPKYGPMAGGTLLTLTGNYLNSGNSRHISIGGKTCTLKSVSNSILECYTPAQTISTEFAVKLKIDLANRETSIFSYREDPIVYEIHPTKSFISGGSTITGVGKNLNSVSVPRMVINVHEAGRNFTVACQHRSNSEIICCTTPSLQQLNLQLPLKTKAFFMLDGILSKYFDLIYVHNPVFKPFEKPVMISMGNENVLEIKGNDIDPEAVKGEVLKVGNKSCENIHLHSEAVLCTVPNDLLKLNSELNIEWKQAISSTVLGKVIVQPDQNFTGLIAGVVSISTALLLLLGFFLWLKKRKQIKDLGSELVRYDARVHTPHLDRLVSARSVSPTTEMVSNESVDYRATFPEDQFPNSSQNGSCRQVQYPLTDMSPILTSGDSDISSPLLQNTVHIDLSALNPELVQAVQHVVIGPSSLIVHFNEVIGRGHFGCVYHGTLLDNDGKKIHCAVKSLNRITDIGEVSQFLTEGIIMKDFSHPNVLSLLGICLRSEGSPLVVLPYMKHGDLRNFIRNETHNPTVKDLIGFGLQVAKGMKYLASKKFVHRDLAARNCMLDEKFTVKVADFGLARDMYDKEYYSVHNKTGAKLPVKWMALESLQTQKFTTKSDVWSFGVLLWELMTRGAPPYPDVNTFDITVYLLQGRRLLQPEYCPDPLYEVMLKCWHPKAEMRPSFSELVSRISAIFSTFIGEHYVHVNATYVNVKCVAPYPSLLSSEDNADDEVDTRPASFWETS

MST2 (STK3) = MST2 (STK3) (Homo sapiens (Human), UniProt Q13188); test: KINOMEscan scanMAX; format: binding; details: 2000 nM; read-out: Percent Control
MYLK2 = MYLK2 (Homo sapiens (Human), UniProt Q9H1R3); test: KINOMEscan scanMAX; format: binding; details: 2000 nM; read-out: Percent Control
PIK3CA = PIK3CA (Homo sapiens (Human), UniProt P42336); test: KINOMEscan scanMAX; format: binding; details: 2000 nM; read-out: Percent Control
PLK4 = PLK4 (Homo sapiens (Human), UniProt O00444); test: KINOMEscan scanMAX; format: binding; details: 2000 nM; read-out: Percent Control
RAF1 = RAF1 (Homo sapiens (Human), UniProt P04049); test: KINOMEscan scanMAX; format: binding; details: 2000 nM; read-out: Percent Control
SLK = SLK (Homo sapiens (Human), UniProt Q9H2G2); test: KINOMEscan scanMAX; format: binding; details: 2000 nM; read-out: Percent Control
SRPK3 = SRPK3 (Homo sapiens (Human), UniProt Q9UPE1); test: KINOMEscan scanMAX; format: binding; details: 2000 nM; read-out: Percent Control
STK35 = STK35 (Homo sapiens (Human), UniProt Q8TDR2); test: KINOMEscan scanMAX; format: binding; details: 2000 nM; read-out: Percent Control
TIE1 = TIE1 (Homo sapiens (Human), UniProt P35590); test: KINOMEscan scanMAX; format: binding; details: 2000 nM; read-out: Percent Control
TIE1, sequence (P35590 22-1138): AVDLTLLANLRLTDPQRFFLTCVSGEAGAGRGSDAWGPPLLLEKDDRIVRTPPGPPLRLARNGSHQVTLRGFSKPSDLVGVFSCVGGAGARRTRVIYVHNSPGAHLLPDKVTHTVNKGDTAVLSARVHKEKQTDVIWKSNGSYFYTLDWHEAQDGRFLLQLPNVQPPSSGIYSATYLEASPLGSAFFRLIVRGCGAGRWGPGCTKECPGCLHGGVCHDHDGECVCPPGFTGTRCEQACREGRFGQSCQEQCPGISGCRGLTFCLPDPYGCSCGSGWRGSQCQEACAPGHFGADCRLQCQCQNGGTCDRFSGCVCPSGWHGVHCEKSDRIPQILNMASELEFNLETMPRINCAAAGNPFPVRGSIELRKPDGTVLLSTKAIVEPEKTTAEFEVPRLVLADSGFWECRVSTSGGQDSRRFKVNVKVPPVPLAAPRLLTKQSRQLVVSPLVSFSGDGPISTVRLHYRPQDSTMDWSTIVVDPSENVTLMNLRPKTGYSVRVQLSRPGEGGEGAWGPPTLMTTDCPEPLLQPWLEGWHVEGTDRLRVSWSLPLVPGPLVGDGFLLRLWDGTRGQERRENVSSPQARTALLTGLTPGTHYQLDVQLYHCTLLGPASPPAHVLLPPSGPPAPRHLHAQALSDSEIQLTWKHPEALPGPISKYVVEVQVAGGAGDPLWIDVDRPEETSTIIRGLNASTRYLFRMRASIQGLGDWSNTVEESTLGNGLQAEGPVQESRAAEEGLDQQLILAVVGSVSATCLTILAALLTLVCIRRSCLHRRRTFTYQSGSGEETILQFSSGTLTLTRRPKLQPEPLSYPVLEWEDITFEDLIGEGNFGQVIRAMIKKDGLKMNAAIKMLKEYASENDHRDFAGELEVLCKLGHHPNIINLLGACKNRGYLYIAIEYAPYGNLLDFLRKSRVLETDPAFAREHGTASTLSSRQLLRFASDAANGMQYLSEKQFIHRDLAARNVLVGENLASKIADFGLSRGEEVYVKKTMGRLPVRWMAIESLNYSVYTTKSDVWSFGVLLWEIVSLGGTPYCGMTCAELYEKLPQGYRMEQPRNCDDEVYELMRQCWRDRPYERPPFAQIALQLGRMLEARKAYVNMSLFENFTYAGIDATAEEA

[2] = molecular target: TYK2(JH2domain-pseudokinase) (Homo sapiens (Human), UniProt P29597); test: KINOMEscan scanMAX; format: binding; details: 2000 nM; read-out: Percent Control
[3] = Serum and tumor PK in mice bearing 22rv1 xenograft tumors; format: in vivo; details: i.p. 20 mg/kg, male NcrNU mice
Experimental: To evaluate the PK of Senexin C in tumor tissues, Senexin C dissolved in 5% Dextrose was administered i.p. to male NcrNU mice bearing 22rv1 xenograft tumors (300˜500 mm^3) at 20 mg/kg. Both blood and tumor samples were collected at three different time points (3 mice per time point) after administration and Senexin C concentration in the serum and tumor tissue was measured by LC/MS/MS.

HL60-Luc cells = test: HL60-Luc proliferation assay (BLI); format: cell-based; details: HL-60-Luc, 168 h; 7 days
Experimental: The anti-leukemic activity was also evaluated with a HL60 assay. The HL60 assay was performed by a similar procedure as MV4-11 assay. A derivative of the HL-60 leukemia cell line was generated to express Luciferase and ZsGreen by lentiviral infection with pHIV-Luc-ZsGreen, to enable leukemia growth analysis by bioluminescence imaging (BLI). The initial Luciferase-ZsGreen transduced cell population was sorted for ZsGreen positivity with fluorescence activated cell sorting and individual clones were tested for luciferase expression. […] The HL-60 assay was performed in 96-well plates by treating the HL60-Luc cells with testing compounds at different concentrations for 7 days, followed by BLI to quantify the effects of test articles on cell proliferation.

Question: Which remaining binding at 2 µM [1] does the source give for CN1CCN(C(=O)c2ccc3cc(CCNc4ccnc5ccc(C#N)cc45)ccc3c2)CC1 [compound 6148, 4-((2-(6-(4-methylpiperazine-1-carbonyl)naphthalen-2-yl)ethyl)amino)quinoline-6-carbonitrile] here?
Answer: Its remaining binding at 2 µM is 93%.

Question: And the remaining binding at 2 µM (ALK(C1156Y))?
Answer: Its remaining binding at 2 µM is 83%.

Question: And the remaining binding at 2 µM (BMPR1B)?
Answer: The remaining binding at 2 µM was 70%.

Question: And the remaining binding at 2 µM (BRAF)?
Answer: The remaining binding at 2 µM was 84%.

Question: And the remaining binding at 2 µM (CDK7)?
Answer: The remaining binding at 2 µM was 69%.

Question: And the remaining binding at 2 µM (CDKL3)?
Answer: The remaining binding at 2 µM was 87%.

Question: And the remaining binding at 2 µM (CHEK2)?
Answer: The remaining binding at 2 µM was 98%.

Question: What about the remaining binding at 2 µM (EGFR(E746-A750del)) of the same compound?
Answer: Its remaining binding at 2 µM is 100%.

Question: And the remaining binding at 2 µM (EPHB1)?
Answer: The remaining binding at 2 µM was 92%.

Question: What about the remaining binding at 2 µM (ERN1) of the same compound?
Answer: The remaining binding at 2 µM was 58%.

Question: And the remaining binding at 2 µM (FGFR3(G697C))?
Answer: Its remaining binding at 2 µM is 93%.

Question: What about the remaining binding at 2 µM (FLT1) of the same compound?
Answer: Its remaining binding at 2 µM is 99%.

Question: What about the “Percent Control” value (FLT3(ITD, D835V)) of the same compound?
Answer: Its value is 55%.

Question: And the remaining binding at 2 µM (HASPIN (GSG2))?
Answer: The remaining binding at 2 µM was 29%.

Question: And the remaining binding at 2 µM (HIPK3)?
Answer: Its remaining binding at 2 µM is 52%.

Question: And the remaining binding at 2 µM (HPK1 (MAP4K1))?
Answer: Its remaining binding at 2 µM is 94%.

Question: What about the remaining binding at 2 µM (ITK) of the same compound?
Answer: Its remaining binding at 2 µM is 93%.

Question: What about the remaining binding at 2 µM (JNK1 (MAPK8)) of the same compound?
Answer: The remaining binding at 2 µM was 54%.

Question: What about the remaining binding at 2 µM (MAP3K1) of the same compound?
Answer: Its remaining binding at 2 µM is 78%.

Question: What about the remaining binding at 2 µM (MAP3K2) of the same compound?
Answer: Its remaining binding at 2 µM is 68%.

Question: And the remaining binding at 2 µM (MEK1 (MAP2K1))?
Answer: The remaining binding at 2 µM was 59%.

Question: What about the remaining binding at 2 µM (MET) of the same compound?
Answer: Its remaining binding at 2 µM is 90%.

Question: And the remaining binding at 2 µM (MST2 (STK3))?
Answer: Its remaining binding at 2 µM is 100%.

Question: What about the remaining binding at 2 µM (MYLK2) of the same compound?
Answer: Its remaining binding at 2 µM is 91%.

Question: And the remaining binding at 2 µM (PIK3CA)?
Answer: The remaining binding at 2 µM was 90%.

Question: What about the remaining binding at 2 µM (PLK4) of the same compound?
Answer: The remaining binding at 2 µM was 90%.

Question: What about the remaining binding at 2 µM (RAF1) of the same compound?
Answer: The remaining binding at 2 µM was 98%.

Question: And the remaining binding at 2 µM (SLK)?
Answer: Its remaining binding at 2 µM is 92%.

Question: What about the remaining binding at 2 µM (SRPK3) of the same compound?
Answer: Its remaining binding at 2 µM is 96%.

Question: And the remaining binding at 2 µM (STK35)?
Answer: The remaining binding at 2 µM was 100%.

Question: And the remaining binding at 2 µM (TIE1)?
Answer: Its remaining binding at 2 µM is 85%.

Question: What about the remaining binding at 2 µM [2] of the same compound?
Answer: Its remaining binding at 2 µM is 63%.

Question: What about the “Clearance from tumor tissue compared with blood” value [3] of the same compound?
Answer: Its value is “much slower clearance rate”.

Question: And the Kp ([3]; mouse, tumor tissue (relative to serum), ip, read-out: Amount in tumor tissue relative to blood)?
Answer: The Kp was 5 to 10.

Question: And the IC50 (HL60-Luc cells)?
Answer: Its IC50 is 0.114 µM.
